According to US20090175805A1, “Neuraminidase Inhibitors and uses thereof” (priority 2006, published 2009):

Columns and labels:
[1] = system: PAO1 biofilm formation; experiment: Biofilm assay, crystal violet staining in 96-well microtiter plates; format: cell-based, P. aeruginosa; details: various concentrations of inhibitor, absorbance at 540 nm
Description: An overnight culture of bacteria grown in LB with shaking was diluted 1:100, and 100 μl aliquots added to 96-well microtiter plates incubated for 24-48 hours at 37° C. (O'Toole et al., (2000) J. Bacteriol. 182:425-431; O'Toole et al., (2000) Annu. Rev. Microbiol. 54:49-79). 0.1% crystal violet was added to each well for 15 minutes, rinsed three times with water then released with the addition of 200 μl of 95% ethanol. Absorbance was determined at 540 nm. For experiments with inhibitors, the following modifications in the assay were used: for oseltamivir (Tamiflu) (Roche, Nutley, N.J.), an overnight culture of bacteria was diluted 1:100 in different doses of inhibitor in LB and 100 μl aliquots plated and assayed as above; for peramivir (BioCryst, Birmingham, Ala.), an overnight culture of bacteria was diluted 1:100 in different doses of inhibitor in LB and incubated at room temperature for 48 hours then diluted 1:2 in LB and 100 μl aliquots plated and assayed as above (McKimm-Breschkin et al., (2003) Antimicrob. Agents. Chemother. 47:2264-2272; Sidwell et al., (2002) Expert Opin. Investig. Drugs 11:859-869). Each sample was tested in sextuplicate and the assay was repeated on three separate occasions and representative data shown. A mean and standard deviation were calculated and statistical significance determined using a two-tailed unpaired t test (Graph Pad Instat version 3.0, Graphpad Software, San Diego, Calif.) to test the null hypothesis that there was no difference in the amount of biofilm production under each test condition, as compared to the media alone or untreated control.

[2] = target: T1, V. cholera neuraminidase (Vibrio cholerae serotype O1, UniProt P0C6E9); experiment: Neuraminidase assay with fluorescent substrate 2'-(4-methylumbelliferyl)-α-D-N-acetylneuraminic acid; format: biochemical; details: peramivir 0.25 and 2.5 μM; 24-48 hours; fluorescence ex 360 nm / em 465 nm
T1 construct: purchased Calbiochem, San Diego, Calif
Description: (§1) The PAO1 enzyme (10 μg/ml) was overexpressed and purified from E. coli using the pET28a vector (Novagen, San Diego, Calif.) and a control V. cholera neuraminidase (0.1 U/ml) (Calbiochem, San Diego, Calif.) were incubated with the fluorescent substrate 2′-(4-methylumbelliferyl)-α-D-N-acetylneuraminic acid (Sigma-Aldrich, St. Louis, Mo.) (25 μM in 0.9% NaCl) with or without peramivir (0.25 and 2.5 μM) for 24-48 hours and fluorescence read at excitation 360 nm and emission 465 nm. Each data point was performed in sextuplicate. A mean and standard deviation were calculated and statistical significance determined using a one-way analysis of variance with Bonferroni's post test (Graph Pad Instat version 3.0, Graphpad Software, San Diego, Calif.) to test the null hypothesis that there was no difference in the amount of fluorescence under each test condition, as compared to the untreated control.

[3] = system: PAO1 enzyme (P. aeruginosa PAO1 neuraminidase); experiment: as above; format: biochemical; details: peramivir 0.25 and 2.5 μM; 24-48 hours; fluorescence ex 360 nm / em 465 nm
Description: as §1

T1 sequence (P0C6E9 25-781): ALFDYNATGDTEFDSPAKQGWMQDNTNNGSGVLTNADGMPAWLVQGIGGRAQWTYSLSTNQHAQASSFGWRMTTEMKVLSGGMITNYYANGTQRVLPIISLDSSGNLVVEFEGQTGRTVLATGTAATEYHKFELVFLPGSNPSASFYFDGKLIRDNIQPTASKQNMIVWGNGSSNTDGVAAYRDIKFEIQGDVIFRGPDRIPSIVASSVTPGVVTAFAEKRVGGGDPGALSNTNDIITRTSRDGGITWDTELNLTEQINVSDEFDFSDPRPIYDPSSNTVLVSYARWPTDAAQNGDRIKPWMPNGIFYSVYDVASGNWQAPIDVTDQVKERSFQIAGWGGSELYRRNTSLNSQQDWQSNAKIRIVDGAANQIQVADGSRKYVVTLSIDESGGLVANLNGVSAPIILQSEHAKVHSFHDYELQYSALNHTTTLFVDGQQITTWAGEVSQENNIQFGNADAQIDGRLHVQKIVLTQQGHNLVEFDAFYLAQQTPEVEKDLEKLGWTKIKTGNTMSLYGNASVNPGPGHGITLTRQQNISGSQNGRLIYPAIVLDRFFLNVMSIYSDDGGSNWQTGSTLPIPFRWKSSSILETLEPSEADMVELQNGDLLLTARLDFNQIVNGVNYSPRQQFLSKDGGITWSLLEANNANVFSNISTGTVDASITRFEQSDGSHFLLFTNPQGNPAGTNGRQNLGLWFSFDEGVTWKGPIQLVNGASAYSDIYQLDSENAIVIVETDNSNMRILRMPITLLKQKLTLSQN

Compound | inhibition of biofilm production by PAO1 [1] | inhibition of neuraminidase activity (V. cholera N'ase) [2] | inhibition of neuraminidase activity (PAO1 N'ase) [3]
CCOC(=O)C1=C[C@@H](OC(CC)CC)[C@H](NC(C)=O)[C@@H](N)C1 [oseltamivir] | dose dependent inhibition of biofilm production |  | 
CCC(CC)[C@H](NC(C)=O)[C@@H]1[C@H](O)[C@@H](C(=O)O)C[C@H]1N=C(N)N [peramivir] | dose dependent inhibition of biofilm production | inhibited | inhibited
CC(=O)N[C@H]1[C@H]([C@H](O)[C@H](O)CO)OC(C(=O)O)=C[C@@H]1N=C(N)N [zanamivir] | dose dependent inhibition of biofilm production |  | 
